Results: patent US12503438B2, “Compounds for the treatment of kinase-dependent disorders” (Exelixis, Inc., priority 2019, dated 2025)
pIC50: −log10 of the molar value.

How the values were obtained:
Human Mer = target: T1, Human Mer (Homo sapiens, UniProt Q12866); assay: Human Mer kinase assay (33P-phosphoryl transfer radiometric, KinaseProfiler); conditions: biochemical activity; 10 μM ATP
T1 construct: Human Mer (residues R557-E882 with H628Q and R794A, 0.7 nM); purchased Eurofins Pharma Discovery Services UK Limited (KinaseProfiler service)
T1 sequence (Q12866 557-882 limits assumed): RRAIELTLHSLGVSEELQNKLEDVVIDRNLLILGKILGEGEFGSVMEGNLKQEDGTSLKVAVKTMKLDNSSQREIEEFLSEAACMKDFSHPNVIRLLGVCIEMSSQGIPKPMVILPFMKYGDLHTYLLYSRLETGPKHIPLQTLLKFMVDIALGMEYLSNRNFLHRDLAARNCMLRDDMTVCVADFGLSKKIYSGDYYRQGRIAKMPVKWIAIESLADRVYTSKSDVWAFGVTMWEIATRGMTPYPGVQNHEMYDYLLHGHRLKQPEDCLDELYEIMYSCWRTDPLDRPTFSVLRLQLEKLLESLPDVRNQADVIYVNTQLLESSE
Experimental: Kinase activity and compound inhibition were investigated using the ^33P-Phosphoryl transfer radiometric kinase assay, performed using the KinaseProfiler™ service of Eurofins Pharma Discovery Services UK Limited. Dose-response experiments were performed using nine compound concentrations in a 96-well microtiter plate. For each assay, all compounds were prepared to a 50× final assay concentration (50 μM) in 100% DMSO, then diluted in a half-log series, with the final top concentration at 1 μM. This working stock of the compound was added to the assay well as the first component in the reaction, followed by the remaining components as detailed in the following assay protocols below. The positive control wells (100% kinase activity) contain all components of the reaction including 2% DMSO (control for solvent effects), except the compound of interest. Blank wells contain all components of the reaction, with the reference inhibitor, staurosporine. This reference compound was used to abolish kinase activity and generated the 0% kinase activity base-line. IC50 values were calculated by nonlinear regression analysis using the sigmoidal dose-response (variable slope) curve fit on XLFit version 5.3 (ID Business Solutions).
Human Mer (residues R557-E882 with H628Q and R794A, 0.7 nM) was incubated with 8 mM MOPS pH 7.0, 0.2 mM EDTA, 30 mM NaCl, 250 μM GGMEDIYFEFMGGKKK, 10 mM magnesium acetate and 10 μM [y-^33P-ATP]. The reaction was initiated by the addition of the Mg/ATP mix. After incubation for 40 minutes at room temperature, the reaction was stopped by the addition of phosphoric acid to a concentration of 0.5%. A reaction aliquot of 10 μL was then spotted onto a P30 filtermat and washed four times for 4 minutes in 0.425% phosphoric acid and once in methanol prior to drying and scintillation counting. Incorporated ^33P was measured using the Wallac Microbeta scintillation counter (Perkin Elmer).

AXL = target: T2, AXL (Homo sapiens, UniProt P30530); assay: AXL autophosphorylation ELISA in A-172 cells; assay type: cell-based; conditions: cellular activity, Gas6-stimulated, phospho-AXL ELISA
T2 construct: endogenous in cells; host or cells: A-172 glioblastoma cells (ATCC #CRL-1620)
T2 sequence (P30530 26-894): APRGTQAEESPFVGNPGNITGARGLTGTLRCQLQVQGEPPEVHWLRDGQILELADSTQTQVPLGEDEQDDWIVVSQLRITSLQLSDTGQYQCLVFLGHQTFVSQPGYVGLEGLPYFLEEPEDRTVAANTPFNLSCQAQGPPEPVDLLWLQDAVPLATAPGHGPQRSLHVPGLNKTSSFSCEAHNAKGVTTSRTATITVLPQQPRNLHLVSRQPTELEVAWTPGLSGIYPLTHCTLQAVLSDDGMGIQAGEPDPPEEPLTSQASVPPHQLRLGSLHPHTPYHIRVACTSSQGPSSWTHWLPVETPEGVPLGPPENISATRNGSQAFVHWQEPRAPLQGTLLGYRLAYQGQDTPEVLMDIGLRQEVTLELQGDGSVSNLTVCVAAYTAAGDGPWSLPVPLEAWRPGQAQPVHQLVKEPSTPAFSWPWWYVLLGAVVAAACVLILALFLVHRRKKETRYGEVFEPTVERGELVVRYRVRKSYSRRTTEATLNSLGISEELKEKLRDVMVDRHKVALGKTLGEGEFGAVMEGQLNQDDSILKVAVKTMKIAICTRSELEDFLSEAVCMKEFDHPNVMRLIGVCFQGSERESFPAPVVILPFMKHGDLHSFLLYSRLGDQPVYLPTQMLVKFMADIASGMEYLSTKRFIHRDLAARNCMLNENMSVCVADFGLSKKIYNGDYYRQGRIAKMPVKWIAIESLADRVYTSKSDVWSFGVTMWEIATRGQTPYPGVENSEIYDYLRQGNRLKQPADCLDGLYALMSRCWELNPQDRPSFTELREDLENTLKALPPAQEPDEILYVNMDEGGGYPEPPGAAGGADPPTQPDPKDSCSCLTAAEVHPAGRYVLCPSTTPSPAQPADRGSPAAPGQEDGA
Method in brief: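 Serum-starved (24 h) A-172 glioblastoma cells got an 8-point compound series (0.3% DMSO) for 1 h, then 1 μg/mL human Gas6 for 15 min. Lysate phospho-AXL quantified by ELISA against phospho-AXL standard, normalized to DMSO and reference-inhibitor controls; IC50 by 4-parameter logistic fit.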

| pIC50 (Human Mer) | pIC50 (AXL) | SMILES |
| --- | --- | --- |
| ≥ 8.00 | ≥ 8.00 | O=C(Nc1ccc(F)cc1)C1(C(=O)Nc2ccc(Oc3ccnc4cc(-c5cnn(CCN6CCOCC6)c5)ccc34)cc2)CC1 [Compound 19, 1-N′-(4-Fluorophenyl)-1-N-[4-[7-[1-(2-morpholin-4-ylethyl)pyrazol-4-yl]quinolin-4-yl]oxyphenyl]cyclopropane-1,1-dicarboxamide] |
| ≥ 8.00 | 7.00 to 8.00 | O=C(Nc1ccc(F)cc1)C1(C(=O)Nc2ccc(Oc3ccnc4cc(-c5ccn(C(F)F)n5)ccc34)cc2)CC1 [Compound 84, 1-N-[4-[7-[1-(Difluoromethyl)pyrazol-3-yl]quinolin-4-yl]oxyphenyl]-1-N′-(4-fluorophenyl)cyclopropane-1,1-dicarboxamide] |
| ≥ 8.00 | ≥ 8.00 | O=C(Nc1ccc(F)cc1)C1(C(=O)Nc2ccc(Oc3ccnc4cc(-c5cnn(C6CCNCC6)c5)ccc34)cc2)CC1 [Compound 60, 1-N′-(4-Fluorophenyl)-1-N-[4-[7-(1-piperidin-4-ylpyrazol-4-yl)quinolin-4-yl]oxyphenyl]cyclopropane-1,1-dicarboxamide] |
| ≥ 8.00 | 7.00 to 8.00 | O=C(Nc1ccc(F)cc1)C1(C(=O)Nc2ccc(Oc3ccnc4cc(-c5cnc[nH]5)ccc34)cc2)CC1 [Compound 72, 1-N′-(4-Fluorophenyl)-1-N-[4-[7-(1H-imidazol-5-yl)quinolin-4-yl]oxyphenyl]cyclopropane-1,1-dicarboxamide] |
| ≥ 8.00 | 7.00 to 8.00 | O=C(Nc1ccc(F)cc1)C1(C(=O)Nc2ccc(Oc3ccnc4cc(-c5ccccn5)ccc34)cc2)CC1 [Compound 85, 1-N′-(4-Fluorophenyl)-1-N-[4-(7-pyridin-2-ylquinolin-4-yl)oxyphenyl]cyclopropane-1,1-dicarboxamide] |
| 6.00 to 7.00 | < 6.52 | C[Si](C)(C)C#Cc1ccc2c(Oc3ccc(NC(=O)C4(C(=O)Nc5ccc(F)cc5)CC4)cc3)ccnc2c1 [Compound 63, 1-N′-(4-Fluorophenyl)-1-N-[4-[7-(2-trimethylsilylethynyl)quinolin-4-yl]oxyphenyl]cyclopropane-1,1-dicarboxamide] |
| ≥ 8.00 | 7.00 to 8.00 | Cn1nccc1-c1ccc2c(Oc3ccc(NC(=O)C4(C(=O)Nc5ccc(F)cc5)CC4)cc3)ccnc2c1 [Compound 54, 1-N′-(4-Fluorophenyl)-1-N-[4-[7-(2-methylpyrazol-3-yl)quinolin-4-yl]oxyphenyl]cyclopropane-1,1-dicarboxamide] |
| ≥ 8.00 | ≥ 8.00 | O=C(Nc1ccc(F)cc1)C1(C(=O)Nc2ccc(Oc3ccnc4cc(-c5ccn[nH]5)ccc34)cc2)CC1 [Compound 68, 1-N′-(4-Fluorophenyl)-1-N-[4-[7-(1H-pyrazol-5-yl)quinolin-4-yl]oxyphenyl]cyclopropane-1,1-dicarboxamide] |
| ≥ 8.00 | ≥ 8.00 | O=C(Nc1ccc(F)cc1)C1(C(=O)Nc2ccc(Oc3ccnc4cc(-c5cnoc5)ccc34)cc2)CC1 [Compound 57, 1-N′-(4-Fluorophenyl)-1-N-[4-[7-(1,2-oxazol-4-yl)quinolin-4-yl]oxyphenyl]cyclopropane-1,1-dicarboxamide] |
| 6.00 to 7.00 | < 6.52 | O=C(Nc1ccc(F)cc1)C1(C(=O)Nc2ccc(Oc3ccnc4cc(-c5cnn[nH]5)ccc34)cc2)CC1 [Compound 65, 1-N′-(4-Fluorophenyl)-1-N-[4-[7-(1H-triazol-5-yl)quinolin-4-yl]oxyphenyl]cyclopropane-1,1-dicarboxamide] |
| ≥ 8.00 | ≥ 8.00 | O=C(Nc1ccc(F)cc1)C1(C(=O)Nc2ccc(Oc3ccnc4cc(-c5ccnnc5)ccc34)cc2)CC1 [Compound 28, 1-N′-(4-Fluorophenyl)-1-N-[4-(7-pyridazin-4-ylquinolin-4-yl)oxyphenyl]cyclopropane-1,1-dicarboxamide] |
| ≥ 8.00 | ≥ 8.00 | COCCn1cc(-c2ccc3c(Oc4ccc(NC(=O)C5(C(=O)Nc6ccc(F)cc6)CC5)cc4)ccnc3c2)cn1 [Compound 10, 1-N′-(4-Fluorophenyl)-1-N-[4-[7-[1-(2-methoxyethyl)pyrazol-4-yl]quinolin-4-yl]oxyphenyl]cyclopropane-1,1-dicarboxamide] |
| ≥ 8.00 | ≥ 8.00 | CCn1cc(-c2ccc3c(Oc4ccc(NC(=O)C5(C(=O)Nc6ccc(F)cc6)CC5)cc4)ccnc3c2)cn1 [Compound 20, 1-N-[4-[7-(1-Ethylpyrazol-4-yl)quinolin-4-yl]oxyphenyl]-1-N′-(4-fluorophenyl)cyclopropane-1,1-dicarboxamide] |
| ≥ 8.00 | 7.00 to 8.00 | CC(C)(C)n1cc(-c2ccc3c(Oc4ccc(NC(=O)C5(C(=O)Nc6ccc(F)cc6)CC5)cc4)ccnc3c2)cn1 [Compound 23, 1-N-[4-[7-(1-tert-Butylpyrazol-4-yl)quinolin-4-yl]oxyphenyl]-1-N′-(4-fluorophenyl)cyclopropane-1,1-dicarboxamide] |
| ≥ 8.00 | ≥ 8.00 | Cn1cc(-c2ccc3c(Oc4ccc(NC(=O)C5(C(=O)Nc6ccc(F)cc6)CC5)cc4)ccnc3c2)cn1 [Compound 11, 1-N′-(4-Fluorophenyl)-1-N-[4-[7-(1-methylpyrazol-4-yl)quinolin-4-yl]oxyphenyl]cyclopropane-1,1-dicarboxamide] |
| ≥ 8.00 | 7.00 to 8.00 | O=C(Nc1ccc(F)cc1)C1(C(=O)Nc2ccc(Oc3ccnc4cc(-c5cnn(CC(F)(F)F)c5)ccc34)cc2)CC1 [Compound 16, 1-N′-(4-Fluorophenyl)-1-N-[4-[7-[1-(2,2,2-trifluoroethyl)pyrazol-4-yl]quinolin-4-yl]oxyphenyl]cyclopropane-1,1-dicarboxamide] |
| ≥ 8.00 | ≥ 8.00 | O=C(Nc1ccc(F)cc1)C1(C(=O)Nc2ccc(Oc3ccnc4cc(-c5cnn(CCF)c5)ccc34)cc2)CC1 [Compound 14, 1-N-[4-[7-[1-(2-Fluoroethyl)pyrazol-4-yl]quinolin-4-yl]oxyphenyl]-1-N′-(4-fluorophenyl)cyclopropane-1,1-dicarboxamide] |
| 6.00 to 7.00 | < 6.52 | CN(C(=O)C1(C(=O)Nc2ccc(Oc3ccnc4cc(-c5cnn(C)c5)ccc34)cc2)CC1)c1ccc(F)cc1 [Compound 82A, 1-N′-(4-Fluorophenyl)-1-N′-methyl-1-N-[4-[7-(1-methylpyrazol-4-yl)quinolin-4-yl]oxyphenyl]cyclopropane-1,1-dicarboxamide] |
| ≥ 8.00 | ≥ 8.00 | O=C(Nc1ccc(F)cc1)C1(C(=O)Nc2ccc(Oc3ccnc4cc(-c5cnn(C(F)F)c5)ccc34)cc2)CC1 [Compound 13, 1-N-[4-[7-[1-(Difluoromethyl)pyrazol-4-yl]quinolin-4-yl]oxyphenyl]-1-N′-(4-fluorophenyl)cyclopropane-1,1-dicarboxamide] |
